Data from patent publication US20250171418A1, “PARP1 INHIBITORS AND USES THEREOF” (XinThera, Inc., priority 2022, published 2025).

Columns and labels:
[1] = In vivo determination of rat Kp,uu; settings: brain and plasma, 1 mg/kg, male Sprague-Dawley rats, oral gavage, 0.1 mg/mL at 10 mL/kg, Kp*(fraction unbound in brain homogenate/fraction unbound in plasma)
Experimental: The equilibrium dialysis method was used to investigate the in vitro binding of test articles and reference compounds to plasma proteins. Plasma samples containing 5 μM test article or blank dialysis buffer solution (PBS, pH 7.4) were added to separate chambers of the dialysis wells of the High Throughput equilibrium Dialysis (HTD) device. The dialysis plate was sealed and placed in an incubator at 37° C. with 5% CO2 with shaking at approximately 100 rpm for 6 hours. All experiments were performed in duplicate. Ketoconazole (5 μM) was used as the reference compound. After incubation, the seal was removed, and 50 μL of post-dialysis samples were pipetted from both buffer and plasma chambers into fresh 96well plates. Samples were equimatrilyzed by either addition of blank plasma to buffer samples or the addition of blank buffer to plasma samples. […] The unbound fractions in plasma were calculated using the concentrations of test articles in buffer and plasma samples according to the following equation: […]
The equilibrium dialysis method was used to investigate the in vitro binding of test articles and reference compounds to rodent brain homogenate. […] The unbound fractions in diluted brain homogenate were calculated using the concentrations of test articles in buffer and homogenate samples according to the following equation: […]

[2] = target: PARP1 (Homo sapiens, UniProt P09874); test: biochemical
Experimental: The assay was performed utilizing the following method:
Compounds were dissolved in DMSO an Echo550 liquid handler was utilized to make serial dilations in the desired concentration range in Optiplate-384F plates. 100% DMSO was used for the high (with protein) and low (without protein) control samples. 20 nL of compound or DMSO alone was added to individual assay plate wells.
PARP1 and PARP2 protein were expressed, purified, and diluted in assay buffer containing 50 mM Tris pH 8.0, 0.001% Triton X-100, 10 mM MgCl2, 150 mM NaCl to a final concentration of 20 nM. The PARPi-FL was then added at a final concentration of 3 nM.
The assay plate was centrifuged at 1000 rpm for 1 min and incubated for 4 h at room temperature.
The fluorescent polarization was read using an Envision plate reader using the following settings: • Excitation filter—FITC FP 480-Ex Slot 3 • Emission filter—FITC FP P-pol 535-Em Slot 4 • 2nd Emission filter—FITC FP S-pol 535-Em Slot 3 • Mirror module—FITC FP Dual Enh-Slot 1
XLFit (equation 201) is used to calculate a reported IC50 for each compound.

[3] = target: T1, BCRP (Homo sapiens, UniProt Q9UNQ0); test: In vitro human transporter efflux, MDCKII cells expressing BCRP; type: in vitro ADME
T1 construct: expressed in transfected cells; host or cells: MDCKII (Madin-Darby canine kidney) cells
T1 sequence (Q9UNQ0 1-655): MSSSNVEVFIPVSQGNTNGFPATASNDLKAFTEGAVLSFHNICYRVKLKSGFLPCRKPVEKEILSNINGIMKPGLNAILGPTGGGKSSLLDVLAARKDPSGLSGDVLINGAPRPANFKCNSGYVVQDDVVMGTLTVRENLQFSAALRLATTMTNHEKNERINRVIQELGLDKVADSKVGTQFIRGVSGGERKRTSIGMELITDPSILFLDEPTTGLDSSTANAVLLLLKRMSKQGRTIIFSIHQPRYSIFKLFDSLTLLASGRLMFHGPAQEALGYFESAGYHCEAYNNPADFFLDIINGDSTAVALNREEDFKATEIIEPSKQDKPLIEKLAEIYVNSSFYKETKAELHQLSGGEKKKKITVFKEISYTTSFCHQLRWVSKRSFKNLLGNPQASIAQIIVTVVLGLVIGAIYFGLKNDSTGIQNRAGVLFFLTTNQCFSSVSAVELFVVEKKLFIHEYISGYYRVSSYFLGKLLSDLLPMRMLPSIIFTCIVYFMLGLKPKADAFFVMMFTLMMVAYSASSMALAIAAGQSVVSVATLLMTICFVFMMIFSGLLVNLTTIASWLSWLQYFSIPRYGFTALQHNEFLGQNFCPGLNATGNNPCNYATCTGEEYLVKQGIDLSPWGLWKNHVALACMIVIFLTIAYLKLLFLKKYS
Experimental: (§1) Madin-Darby canine kidney (MDCKII) cells expressing either MDR1 or BCRP were seeded onto Corning HTS Transwell® 96-well polycarbonate permeable (0.4 μm pore) supports at a density of 545,000 cells/cm2. Cells were incubated for 4-8 days prior to assay, and monolayer integrity was assessed by measuring transepithelial electrical resistance (TEER). […] The final organic solvent concentration was 0.5% (v/v). Bidirectional (apical-to-basolateral and basolateral-to-apical) flux of the test and reference compounds was determined over a 2-hour incubation at 37° C. and […] with a relative humidity of 95%. At the end of the incubation, samples from the apical and basolateral side were taken and then precipitated with acetonitrile containing internal standard. After centrifugation at 3200×g, supernatants were diluted 1:1 (v/v) with water and subjected to analysis via HPLC-MS/MS.
(§2) The apparent permeability (Papp, units of x 10-6 cm/s) was calculated using the following equation: […]
(§3) Where dQ/dt was the rate of drug transport (pmol/s), A was the surface area of the membrane (0.143 cm^2), and DO was the initial donor concentration (nM or pmol/cm3).
(§4) Efflux ratio=Papp(B→A)/Papp(A→B)
(§5) Where Papp(B→A) is the apparent permeability in the basolateral-to-apical direction, and Papp(A→B) is the apparent permeability in the apical-to-basolateral direction.

[4] = target: T2, MDR1 (Homo sapiens, UniProt P08183); test: In vitro human transporter efflux, MDCKII cells expressing MDR1; type: in vitro ADME
T2 construct: expressed in transfected cells; host or cells: MDCKII (Madin-Darby canine kidney) cells
Experimental: as §1, §2, §3, §4, §5

[5] = system: DLD-1 BRCA2(−/−); test: Cell growth inhibition assay (CellTiter-Glo cell viability); type: cell-based; settings: Homo sapiens, DLD-1, 168 h, DLD-1 BRCA2(−/−) cells, 7 days, CellTiter Glo 2.0
Experimental: (§6) Cell proliferation was measured through the cell viability assay using DLD-1 BRCA2(−/−) and parental isogenic pair and MDA-MB-436 (mutated BRCA1) cell lines. The CellTiter-Glo (CTG) based cell viability assay is designed to determine the number of viable cells in the culture because of compound effect, by quantifying ATP, which indicates the presence of metabolically active cells.
(§7) DLD-1 BRCA2(−/−) and parental isogenic pair were cultured in RPMI 1640 supplemented with 10% fetal bovine serum (FBS), and MDA-MB-436 cells were cultured in DMEM supplemented with 10% FBS. Both were cultured at 37° C. with […]. Invention compounds were distributed to the 384 well plate (Corning, 3764) using Echo acoustic liquid handler to form a 1:3 serially diluted final concentration with top dose of 10 or 30 μM.

[6] = system: MDA-MB-436 (mutated BRCA1) cell lines; test: as above; type: cell-based; settings: Homo sapiens, 168 h; MDA-MB-436 cells, 7 days, CellTiter Glo 2.0
Experimental: as §6, §7

T2 sequence (P08183 whole entry): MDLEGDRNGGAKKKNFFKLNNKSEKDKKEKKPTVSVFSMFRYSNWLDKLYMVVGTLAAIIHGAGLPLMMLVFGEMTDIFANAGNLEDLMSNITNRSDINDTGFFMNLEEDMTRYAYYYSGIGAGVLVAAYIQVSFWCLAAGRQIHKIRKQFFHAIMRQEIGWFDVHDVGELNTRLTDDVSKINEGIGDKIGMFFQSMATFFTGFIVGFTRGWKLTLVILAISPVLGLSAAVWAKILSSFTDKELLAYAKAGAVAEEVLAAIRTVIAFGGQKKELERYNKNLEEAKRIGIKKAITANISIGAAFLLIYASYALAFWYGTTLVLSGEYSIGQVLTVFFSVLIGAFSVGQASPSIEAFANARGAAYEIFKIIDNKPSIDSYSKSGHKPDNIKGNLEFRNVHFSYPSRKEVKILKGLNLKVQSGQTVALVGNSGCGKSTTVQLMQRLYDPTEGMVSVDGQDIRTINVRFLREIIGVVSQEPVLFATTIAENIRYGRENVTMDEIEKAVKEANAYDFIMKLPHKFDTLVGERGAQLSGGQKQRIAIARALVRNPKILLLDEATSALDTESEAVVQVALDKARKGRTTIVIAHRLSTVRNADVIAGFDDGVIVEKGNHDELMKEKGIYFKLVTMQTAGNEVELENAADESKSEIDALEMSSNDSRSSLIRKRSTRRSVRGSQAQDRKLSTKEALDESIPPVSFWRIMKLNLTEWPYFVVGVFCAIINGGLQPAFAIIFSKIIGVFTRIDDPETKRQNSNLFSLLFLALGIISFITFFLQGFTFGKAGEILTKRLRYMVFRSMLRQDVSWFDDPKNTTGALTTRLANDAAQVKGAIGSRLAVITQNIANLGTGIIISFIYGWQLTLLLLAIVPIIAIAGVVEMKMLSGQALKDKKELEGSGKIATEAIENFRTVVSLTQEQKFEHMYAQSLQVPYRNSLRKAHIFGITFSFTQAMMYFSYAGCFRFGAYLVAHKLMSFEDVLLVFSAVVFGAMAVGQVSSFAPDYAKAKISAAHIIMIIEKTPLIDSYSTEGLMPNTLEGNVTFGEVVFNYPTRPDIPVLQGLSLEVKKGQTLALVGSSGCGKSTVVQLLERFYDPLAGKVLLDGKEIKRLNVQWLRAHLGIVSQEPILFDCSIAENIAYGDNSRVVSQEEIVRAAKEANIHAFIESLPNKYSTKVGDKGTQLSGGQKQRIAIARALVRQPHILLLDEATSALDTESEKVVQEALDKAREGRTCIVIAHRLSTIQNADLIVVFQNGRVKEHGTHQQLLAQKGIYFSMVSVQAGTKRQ
PARP1, sequence (P09874 whole entry): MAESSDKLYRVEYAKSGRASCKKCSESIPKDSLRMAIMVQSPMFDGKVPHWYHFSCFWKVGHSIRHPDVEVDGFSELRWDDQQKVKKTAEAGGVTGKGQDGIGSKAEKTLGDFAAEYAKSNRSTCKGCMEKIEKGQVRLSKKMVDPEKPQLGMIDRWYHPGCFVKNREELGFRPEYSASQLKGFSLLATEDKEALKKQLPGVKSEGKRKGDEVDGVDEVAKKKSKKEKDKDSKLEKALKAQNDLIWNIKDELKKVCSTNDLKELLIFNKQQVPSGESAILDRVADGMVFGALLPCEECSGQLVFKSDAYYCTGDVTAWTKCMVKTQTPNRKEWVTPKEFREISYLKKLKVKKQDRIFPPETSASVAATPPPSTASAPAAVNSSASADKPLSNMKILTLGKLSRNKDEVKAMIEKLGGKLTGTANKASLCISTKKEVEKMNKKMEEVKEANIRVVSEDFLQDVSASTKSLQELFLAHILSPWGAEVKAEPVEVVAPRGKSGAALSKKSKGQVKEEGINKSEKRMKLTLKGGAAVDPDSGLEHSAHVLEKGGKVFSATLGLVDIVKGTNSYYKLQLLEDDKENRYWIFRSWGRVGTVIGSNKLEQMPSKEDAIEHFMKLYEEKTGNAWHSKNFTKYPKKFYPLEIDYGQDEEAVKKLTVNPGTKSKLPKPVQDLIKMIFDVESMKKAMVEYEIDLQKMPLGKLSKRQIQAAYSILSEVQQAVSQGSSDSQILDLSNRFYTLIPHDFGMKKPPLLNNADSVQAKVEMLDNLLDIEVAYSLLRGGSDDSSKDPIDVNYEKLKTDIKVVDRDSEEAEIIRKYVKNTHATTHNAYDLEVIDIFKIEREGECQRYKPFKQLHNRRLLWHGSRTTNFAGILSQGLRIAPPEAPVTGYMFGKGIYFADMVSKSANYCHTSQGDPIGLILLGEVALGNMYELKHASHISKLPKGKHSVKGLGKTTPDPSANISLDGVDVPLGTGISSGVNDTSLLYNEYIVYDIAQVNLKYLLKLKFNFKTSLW

Kp uu [1]: 0.37
IC50 [2]: 4.5 nM
efflux ratio at 2 h, 10 μM ([3]; pH 7.4, Efflux ratio=Papp(B→A)/Papp(A→B)): 0.94
Papp A→B at 2 h, 10 μM ([3]; pH 7.4, read-out: BCRP Papp AB): 25.7 ×10⁻⁶ cm/s
Papp B→A at 2 h, 10 μM ([3]; pH 7.4, read-out: BCRP Papp BA): 24.1 ×10⁻⁶ cm/s
efflux ratio at 2 h, 10 μM ([4]; MDCK-MDR1, pH 7.4, Efflux ratio=Papp(B→A)/Papp(A→B)): 1.82
Papp A→B at 2 h, 10 μM ([4]; MDCK-MDR1, pH 7.4, read-out: MDCK-MDR1 Papp AB): 16.5 ×10⁻⁶ cm/s
Papp B→A at 2 h, 10 μM ([4]; MDCK-MDR1, pH 7.4, read-out: MDCK-MDR1 Papp BA): 30 ×10⁻⁶ cm/s
EC50 [5]: 3.7 nM
EC50 [6]: 2.4 nM
SMILES: Cc1nc2ccc(CN3CCN(c4ccc(C(=O)NC5CC5)nc4F)CC3)c(F)c2[nH]c1=O [Example 1, N-cyclopropyl-6-fluoro-5-{4-[(5-fluoro-2-methyl-3-oxo-4H-quinoxalin-6-yl)methyl]piperazin-1-yl}pyridine-2-carboxamide]
